Data as given in US8287923B2, “Compositions and methods for treating immune disorders” (priority 2005, dated 2012).

System: NS-SV-AC cells
Experiment: TNF-α-induced cytotoxicity, MTT assay
Format: cell-based, human
Conditions: cells exposed to TNF-α and EGCG in presence of inhibitor
Description: TNF-α cyotoxicity: NS-SV-AC cells (0.5×10<4> cells/well) were seeded in a 96-well microplate and either treated for 24 hr with EGCC as described above (or not treated in the control), in the presence of 100 ng/ml TNFα and 10 μg/ml cyclohexamide. After the treatments, viability was determined by the MTT assay. The cells in each well were washed with 200 μl of phosphate-buffered saline (PBS) and incubated with 100 μl of 2% (w/v) MTT in a solution of 0.05 M Tris-HCl (pH 7.6), 0.5 mM MgCl2, 2.5 mM CoCl2 and 0.25 M disodium succinate at 37° C. for 30 min. Cells were fixed by the addition of 100 μl of 4% (v/v) formalin in 0.2 M Tris-HCl (pH 7.6), and after a 5 min incubation at room temperature liquid was removed and the wells were allowed to dry. Each well was rinsed with 200 μl water and cells were solubilized by the addition of 100 μl of 6.35% (v/v) 0.1 N NaOH in DMSO. The colored formazan product was measured by a Thermo MAX micro plate reader (Molecular Devices Corp. Sunnyvale, Calif.) at a wavelength of 562 nm.
We examined the effects of EGCG on TNF-α-induced cytotoxicity of the human salivary gland acinar cell line NS-SV-AC using the MTT assay.
To examine the role of activation of the p38 signaling pathway in reducing TNF-α-induced cytotoxicity, cells were exposed to TNF-[alpha] and EGCG in the presence of either the p38 MAPK inhibitor SB203580 or the MEK inhibitor PD98059.

C[S+]([O-])c1ccc(-c2nc(-c3ccncc3)c(-c3ccc(F)cc3)[nH]2)cc1 (centres unmarked) [SB203580]
effect on protection by EGCG against TNF-α-induced loss of cell viability: significantly reduced the protective effect of EGCG

COc1cccc(-c2cc(=O)c3ccccc3o2)c1N [PD98059]
effect on protection by EGCG against TNF-α-induced loss of cell viability: significantly reduced the protective effect of EGCG
